# Results reported in patent publication US20250230138A1, “COMPOUNDS HAVING A T-STRUCTURE FORMED BY AT LEAST FOUR CYCLES FOR USE IN THE TREATMENT OF CANCER AND OTHER INDICATIONS” (TheRas, Inc., priority 2022, published 2025).
# Where two headings read alike, the source gives them in different places.
# How the values were obtained:
# [1] = biological target: Cys242 in human PIK3CA (157-299) (Homo sapiens (Human), UniProt P42336); experiment: Covalent modification assay using MALDI-TOF MS; format: biochemical; conditions: 4 h reaction time point
# In short: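 PIK3CA (157-299) at 3.33 μM or 1 μM in 20 mM HEPES, 150 mM NaCl, 2 mM MgCl2, pH 7.3 was incubated with compound (from 10 mM DMSO stocks) in the dark at room temperature for 15 min, 30 min, 2 h or 4 h. Linear-mode MALDI-TOF peak heights gave percent modification.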
# pAKT in BT474 cells = experiment: Cell-based pAKT HTRF assay in BT474 cells; conditions: BT474 cells, 4 hr incubation, read-out: pAKT inhibition IC50 in BT474 cells
# In short: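 pAKT was measured by HTRF after a 4 hr compound exposure in BT474 cells (DMEM, 10% FBS, 0.25% DMSO), using 9 concentrations from 3 μM in 3-fold steps. Cell lysates were incubated with the Eu cryptate/d2 antibody pair at room temperature for 4 to 24 h. The plate was then read at 320 nm excitation and 615 nm emission.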
# [2] = 1 μM protein target, 1:5 protein to compound ratio (compounds 853-1279)
# [3] = 3.33 μM protein target, 1:7.5 protein to compound ratio (compounds 1-852)
# Sequence of Cys242 in human PIK3CA (157-299) (P42336 157-299): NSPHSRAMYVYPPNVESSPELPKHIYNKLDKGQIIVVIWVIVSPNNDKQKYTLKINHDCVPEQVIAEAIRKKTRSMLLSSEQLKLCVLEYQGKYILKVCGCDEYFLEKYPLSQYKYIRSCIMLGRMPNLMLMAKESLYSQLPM
SMILES,"% of modification [1, 2]",IC50 (pAKT in BT474 cells; Compounds 10-999),IC50 (pAKT in BT474 cells; Compounds 1000-1279),"% of modification [1, 3]","IC50 (pAKT in BT474 cells; Homo sapiens, BT-474, Compounds 10-999)"
C=CC(=O)N1CCn2nc(-c3nc(-c4ccc5cnncc5c4)c4ccsc4c3-c3c(F)cc(F)cc3OC[C@@H](C)O)cc2[C@H]1C [Compound 895],A (percent of modification of PIK3CA protein ≥75%),< 100 nM,,,
C=CC(=O)N1CCn2nc(-c3nc(-c4ccc(OCCN(C)C)nc4)c4ccsc4c3-c3c(F)cc(F)cc3OCCOC)cc2C1C (stereo not shown) [Compound 1065],A (percent of modification of PIK3CA protein ≥75%),,< 100 nM,,
C=CC(=O)N1CCc2nc(-c3nc(-c4ccc(C(C)(C)C#N)cc4)c4ccsc4c3-c3c(F)cc(F)cc3OCCOC)sc2C1 [Compound 439],,100 to 1000 nM,,D (percent of modification <25%),
C=CC(=O)N1Cc2cc(-c3nc(-c4cnn(C)c(=O)c4)c4ccsc4c3-c3c(F)cc(F)cc3OCCOC)nn2C[C@H]1C [Compound 793],,< 100 nM,,A (percent of modification of PIK3CA protein ≥75%),
C=CC(=O)N1CCn2nc(-c3nc(-c4cc5cnn(C)c5cc4F)c4ccsc4c3-c3c(F)cc(F)cc3OCCO)cc2[C@H]1C [Compound 1162],A (percent of modification of PIK3CA protein ≥75%),,< 100 nM,,
C=CC(=O)N1CCn2nc(-c3nc(-c4ccc5c(c4)CN(C)CC5)c4ccsc4c3-c3c(F)cc(F)cc3OCCOC)cc2C1C (stereo not shown) [Compound 1104],A (percent of modification of PIK3CA protein ≥75%),,< 100 nM,,
C=CC(=O)N1CCn2nc(-c3nc(-c4cncc(C#N)c4)c4ccsc4c3-c3c(F)cc(F)cc3OC[C@@H](C)O)cc2[C@@H]1C [Compound 676],,< 100 nM,,A (percent of modification of PIK3CA protein ≥75%),
C=CC(=O)N1CCn2nc(-c3nc(-c4ccc5c(=O)n(C)ncc5c4)c4ccsc4c3-c3c(F)cc(F)cc3OCCOC)cc2C1C (stereo not shown) [Compound 914],A (percent of modification of PIK3CA protein ≥75%),< 100 nM,,,
C=CC(=O)N1CCc2ncc(-c3nc(-c4ccc5c(c4)CNC5=O)c4ccsc4c3-c3c(F)cc(F)cc3OC(C)C)cc2C1 [Compound 326],,< 100 nM,,A (percent of modification of PIK3CA protein ≥75%),
C=CC(=O)N1CCc2ncc(-c3nc(-c4cnn(C)c4)c4ccsc4c3-c3c(F)cc(F)cc3OCCOC)cc2C1 [Compound 393],,< 100 nM,,A (percent of modification of PIK3CA protein ≥75%),
C=CC(=O)N1CCn2nc(-c3nc(-c4ccc5nn(C)cc5c4)c4ccsc4c3-c3c(F)cc(F)cc3OC[C@@H](C)O)cc2[C@@H]1C [Compound 646],,< 100 nM,,A (percent of modification of PIK3CA protein ≥75%),
C=CC(=O)N1CCn2nc(-c3nc(-c4ccc5c(c4)CCN(C)C5)c4ccsc4c3-c3c(F)cc(F)cc3OCCO)cc2C1C (stereo not shown) [Compound 533],,< 100 nM,,A (percent of modification of PIK3CA protein ≥75%),
"C=CC(=O)N1Cc2cc(-c3nc(-c4ccc5c(c4)CCN(C)C5)c4ccsc4c3-c3c(F)cc(F)cc3OC(C)C)nn2C[C@H]1C [Compound 479, 1-((R)-2-((S)-7-(2,4-difluoro-6-isopropoxyphenyl)-4-(2-methyl-1,2,3,4-tetrahydroisoquinolin-6-yl)thieno[3,2-c]pyridin-6-yl)-6-methyl-6,7-dihydropyrazolo[1,5-a]pyrazin-5(4H)-yl)prop-2-en-1-one]",,< 100 nM,,A (percent of modification of PIK3CA protein ≥75%),
"C=CC(=O)N1CCc2nc(-c3nc(-c4ccc5c(c4)CCN(C)C5)c4ccsc4c3-c3c(F)cc(F)cc3OCCOC)sc2C1 (single isomer, unassigned) [Compound 449]",,1000 to 3000 nM,,D (percent of modification <25%),
C=CC(=O)N1CCn2nc(-c3nc(-c4ccc5cnn(C)c5c4)c4ccsc4c3-c3c(F)cc(F)cc3OCC(C)O)cc2C1C (stereo not shown) [Compound 769],,< 100 nM,,A (percent of modification of PIK3CA protein ≥75%),
"C=CC(=O)N1CCc2ccc(-c3nc(-c4cn(C)cn4)c4ccsc4c3-c3c(F)cc(F)cc3OCCO)cc2C1 (single isomer, unassigned) [Compound 1001]",D (percent of modification <25%),,100 to 1000 nM,,

SMILES,"% of modification [1, 2]",IC50 (pAKT in BT474 cells; Compounds 10-999),IC50 (pAKT in BT474 cells; Compounds 1000-1279),"% of modification [1, 3]","IC50 (pAKT in BT474 cells; Homo sapiens, BT-474, Compounds 10-999)"
C=CC(=O)N1CC(n2cc(-c3nc(-c4ccc5c(c4)CCNC5)c4ccsc4c3-c3ccc(F)cc3OC(F)F)cn2)C1 [Compound 136],,100 to 1000 nM,,A (percent of modification of PIK3CA protein ≥75%),
C=CC(=O)N1Cc2cc(-c3nc(-c4ccc5c(cnn5C)c4)c4ccsc4c3-c3c(F)cc(F)cc3OC)nn2C(C)C1 (stereo not shown) [Compound 854],A (percent of modification of PIK3CA protein ≥75%),< 100 nM,,,
C=CC(=O)N1CCC(n2cc(-c3nc(-c4ccc5c(c4)CS(=N)(=O)C5)c4ccsc4c3-c3ccc(F)cc3OCCOC)cn2)CC1 (stereo not shown) [Compound 94],,< 100 nM,,A (percent of modification of PIK3CA protein ≥75%),
C=CC(=O)N1CC(n2cc(-c3nc(C4CCN(C(C)=O)CC4)c4ccsc4c3-c3ccc(F)cc3OC)cn2)C1 [Compound 297],,1000 to 3000 nM,,B (50%<percent of modification <75%),
C=C(F)C(=O)N1CCn2nc(-c3nc(-c4ccc5c(c4)CCNC5=O)c4ccsc4c3-c3ccc(F)cc3OC(C)C)nc2C1 [Compound 256],,100 to 1000 nM,,A (percent of modification of PIK3CA protein ≥75%),
C=CC(=O)N1CCn2nc(-c3nc(-c4ccc(OC5CN(C)C5)cc4)c4ccsc4c3-c3c(F)cc(F)cc3OCCO)cc2C1C (stereo not shown) [Compound 1198],A (percent of modification of PIK3CA protein ≥75%),,< 100 nM,,
C=CC(=O)N1CCn2nc(-c3nc(-c4cnn(C)c4)c4ccsc4c3-c3c(F)cc(F)cc3OC(C)C)cc2C1 [Compound 289],,< 100 nM,,A (percent of modification of PIK3CA protein ≥75%),
C=CC(=O)N1Cc2cc(-c3nc(-c4ccc5ncn(C)c(=O)c5c4)c4ccsc4c3-c3c(F)cc(F)cc3OCCOC)nn2C[C@H]1C [Compound 842],,< 100 nM,,A (percent of modification of PIK3CA protein ≥75%),
C=CC(=O)N1CCc2cc(-c3nc(-c4ccc5cn(C)nc5c4)c4ccsc4c3-c3c(F)cc(F)cc3OCCO)nn2CC1 [Compound 1210],A (percent of modification of PIK3CA protein ≥75%),,< 100 nM,,
C=CC(=O)N1CC(n2cc(-c3nc(-c4cnn(CC(N)=O)c4)c4ccsc4c3-c3ccc(F)cc3OCCOC)cn2)C1 [Compound 239],,< 100 nM,,A (percent of modification of PIK3CA protein ≥75%),
C=CC(=O)N1CCn2nc(-c3nc(-c4ccc5c(c4)CNC(=O)C5)c4ccsc4c3-c3c(F)cc(F)cc3OCCO)cc2[C@H]1C [Compound 890],A (percent of modification of PIK3CA protein ≥75%),< 100 nM,,,
"C=CC(=O)N1CCc2nc(-c3nc(-c4ccc5c(c4)CCNC5)c4c(F)csc4c3-c3c(F)cc(F)cc3OCCOC)sc2C1 [Compound 434, 1-[2-[7-[2,4-difluoro-6-(2-methoxyethoxy)phenyl]-3-fluoro-4-(1,2,3,4-tetrahydroisoquinolin-6-yl)thieno[3,2-c]pyridin-6-yl]-6,7-dihydro-4H-thiazolo[5,4-c]pyridin-5-yl]prop-2-en-1-one]",,,,A (percent of modification of PIK3CA protein ≥75%),100 to 1000 nM
C=CC(=O)N1Cc2cc(-c3nc(-c4ccc5nn(C)cc5c4)c4ccsc4c3-c3c(F)cc(F)cc3OC(C)C)nn2CC1C (stereo not shown) [Compound 530],,< 100 nM,,A (percent of modification of PIK3CA protein ≥75%),
C=CC(=O)N1CCn2nc(-c3nc(-c4cnc5c(c4)CNC(=O)C5)c4ccsc4c3-c3c(F)cc(F)cc3OCCOC)cc2[C@H]1C [Compound 750],,< 100 nM,,A (percent of modification of PIK3CA protein ≥75%),
C=CC(=O)N1CCn2nc(-c3nc(-c4ccc(OCCN5CCC5)cc4)c4ccsc4c3-c3c(F)cc(F)cc3OCCOC)cc2C1C (stereo not shown) [Compound 1073],A (percent of modification of PIK3CA protein ≥75%),,< 100 nM,,
C=CC(=O)N1Cc2cc(-c3nc(-n4cnc(C)c4)c4ccsc4c3-c3c(F)cc(F)cc3OCCOC)nn2C[C@H]1C [Compound 824],,< 100 nM,,A (percent of modification of PIK3CA protein ≥75%),
